{
  "source": "paper PMC8961646",
  "about": "“Fibroblast Activation Protein Specific Optical Imaging in Non-Small Cell Lung Cancer” (Frontiers in Oncology, 2022)",
  "key": {"MMP 2": {"biological_target": "T1, MMP 2 (Homo sapiens, UniProt P08253)", "T1 sequence (P08253 110-660)": "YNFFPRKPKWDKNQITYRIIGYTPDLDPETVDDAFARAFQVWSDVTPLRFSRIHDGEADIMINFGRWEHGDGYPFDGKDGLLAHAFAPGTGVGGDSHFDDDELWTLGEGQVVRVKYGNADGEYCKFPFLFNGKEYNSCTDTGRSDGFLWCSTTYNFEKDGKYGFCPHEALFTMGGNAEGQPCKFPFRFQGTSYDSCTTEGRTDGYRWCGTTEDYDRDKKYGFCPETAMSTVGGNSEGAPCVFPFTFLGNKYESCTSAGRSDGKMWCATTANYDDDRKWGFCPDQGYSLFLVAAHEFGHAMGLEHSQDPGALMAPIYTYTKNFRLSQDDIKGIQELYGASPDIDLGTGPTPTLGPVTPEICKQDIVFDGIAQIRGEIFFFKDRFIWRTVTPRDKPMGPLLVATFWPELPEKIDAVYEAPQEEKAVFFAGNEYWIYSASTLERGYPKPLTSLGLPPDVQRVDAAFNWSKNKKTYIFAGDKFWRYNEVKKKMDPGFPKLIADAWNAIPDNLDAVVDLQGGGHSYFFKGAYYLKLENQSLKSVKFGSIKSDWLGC", "assay": "Probe assessment against recombinant MMP panel", "type": "biochemical", "settings": "recombinant enzyme, n=2 run in triplicate"}, "rhFAP": {"biological_target": "T2, rhFAP (Homo sapiens, UniProt Q12884)", "T2 construct": "purchased R&D Systems", "T2 sequence (Q12884 26-760 limits assumed)": "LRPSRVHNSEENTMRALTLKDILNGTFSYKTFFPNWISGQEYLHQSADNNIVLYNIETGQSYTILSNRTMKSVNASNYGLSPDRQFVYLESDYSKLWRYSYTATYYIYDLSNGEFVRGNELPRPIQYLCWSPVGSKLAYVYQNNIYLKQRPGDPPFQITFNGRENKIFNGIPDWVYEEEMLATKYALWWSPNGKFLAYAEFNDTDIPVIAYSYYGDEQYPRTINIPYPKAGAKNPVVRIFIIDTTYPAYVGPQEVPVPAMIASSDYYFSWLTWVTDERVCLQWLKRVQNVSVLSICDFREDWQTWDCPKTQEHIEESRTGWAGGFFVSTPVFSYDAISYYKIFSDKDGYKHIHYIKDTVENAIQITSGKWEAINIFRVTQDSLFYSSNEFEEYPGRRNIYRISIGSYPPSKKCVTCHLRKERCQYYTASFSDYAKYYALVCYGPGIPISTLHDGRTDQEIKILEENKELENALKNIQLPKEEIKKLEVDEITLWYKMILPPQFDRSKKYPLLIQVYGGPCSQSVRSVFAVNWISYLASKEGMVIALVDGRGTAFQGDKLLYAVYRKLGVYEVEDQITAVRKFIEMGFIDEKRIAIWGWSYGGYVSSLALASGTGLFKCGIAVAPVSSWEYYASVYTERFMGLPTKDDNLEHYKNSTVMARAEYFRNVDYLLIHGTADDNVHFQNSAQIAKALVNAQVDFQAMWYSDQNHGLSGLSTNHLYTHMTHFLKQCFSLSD", "assay": "Enzyme kinetics with varying concentrations of substrate FAP3 in presence of rhFAP", "type": "biochemical", "settings": "increasing concentrations of substrate FAP3 with rhFAP; value (SE)", "description": "A calibration curve was determined using the FAP3 concentration (C-terminal cleavage fragment) against RFU to calculate the enzyme kinetic data and is shown below."}, "[1]": {"assay": "Probe stability in activated neutrophil lysate", "quoted_text": "Assays were undertaken in triplicate in blackened 384 well plates on ice prior to spectral reads.\nNeutrophils were isolated from peripheral blood of healthy volunteers by discontinuous percoll gradients, as previously described ([29]). Cells were resuspended in PBS (at 10 million cells/ml) and stimulated with 1 µM calcium ionophore, then lysed with 1% Triton-X-100. Lysate was used at 1:1 dilution for experiments, replacing recombinant enzymes in the assay as described above, with PBS as the buffer.\nMALDI spectra were acquired on a Bruker Ultraflextreme MALDI-TOF MS. Neutrophil lysate experiment samples were prepared by plating 1 µl of the sample with 1 µl of the matrix solution sinapic acid (10 mg/mL) in H2O/CH3CN/TFA (70/30/0.1)."}},
  "note": "Non-standard residues stand in square brackets, D forms with d. Residues, ends and D or L forms follow the SMILES beside them. *: point of attachment. 5FAM = O=C1OC2(c3ccc(O)cc3Oc3cc(O)ccc32)c2ccc(C(=O)*)cc21; MethylRed = CN(C)c1ccc(/N=N/c2ccccc2C(=O)*)cc1; AEEA = NCCOCCOCC(=O)O",
  "data": [
    {"smiles": "CC(C)[C@H](NC(=O)[C@@H](N)CCCCNC(=O)c1ccccc1/N=N/c1ccc(N(C)C)cc1)C(=O)N[C@H](CO)C(=O)N1CCC[C@H]1C(=O)N[C@@H](CC(N)=O)C(=O)N[C@@H](CCC(N)=O)C(=O)NCC(=O)N[C@@H](CCCCNC(=O)c1ccc2c(c1)C(=O)OC21c2ccc(O)cc2Oc2cc(O)ccc21)C(=O)NCCOCCOCC(=O)N[C@H](CCCCN)C(=O)NCCOCCOCC(=O)N[C@H](CCCCN)C(=O)NCCOCCOCC(=O)N[C@H](CCCCN)C(N)=O", "note": "[FAP3] (H-K(MethylRed)V[dS]PNQGK(5FAM)[AEEA][dK][AEEA][dK][AEEA][dK]-NH2)", "values": [
      {"measurement": "Activity with MMP 2", "setting": "MMP 2", "value": "no activity"},
      {"measurement": "Vmax", "setting": "rhFAP", "value": 109.5, "unit": "RFU/min"},
      {"measurement": "Stability in activated neutrophil lysate (MALDI-TOF)", "setting": "[1]; activated human neutrophil lysate, MALDI-TOF read-out, sinapic acid matrix", "value": "remained intact"},
      {"measurement": "Stability in activated neutrophil lysate (fluorescence)", "setting": "[1]; human neutrophils 10 million cells/ml, 1 µM calcium ionophore, lysed with 1% Triton-X-100, lysate at 1:1 dilution, PBS, fluorescence 480/530 nm, n=2 run in triplicate", "value": "stable"}
    ]}
  ]
}
